{"source": "patent US20220304942A1", "about": "“TREATMENT OF OBESITY AND RELATED CONDITIONS” (University of Greenwich, priority 2019, published 2022)", "key": {"[1]": {"system": "Sprague-Dawley rat adipocytes", "conditions": "cited from earlier work"}, "[2]": {"system": "male, wild-type C57BL/6 mice", "experiment": "Short term (four-week) dosing of 2,3-butanediol in drinking water to wild-type mice", "format": "in vivo", "conditions": "28 days", "protocol": "2,3-butanediol was then administered over a four-week dosing period to wild-type mice. The 2,3-butanediol was delivered to male, wild-type C57BL/6 mice in drinking water, from 13 to 17 weeks of age. Dose delivery estimation was based on mouse average water consumption. Groups of male mice were either untreated, treated with 60, 250 or 600 mg/kg 2,3-butanediol in their drinking water. Water was changed twice weekly. Weights of mice and food intake were recorded. Urine was collected on day 0 (age 13 weeks, pre-treatment) and at 28 days post-treatment (mice aged 17 weeks) and analysed for 2,3-butanediol.\nBlood was collected on day 0 (age 13 weeks) and at 28 days post-treatment (mice aged 17 weeks). Plasma was isolated and analysed. At termination of experiment, epidydimal fat pads (EWAT) were weighed and expressed as EWAT:Body weight ratios, […]"}, "WT mice": {"system": "WT mice", "experiment": "Longer term dosing of 2,3-butanediol to WT mice, with washout cohort", "format": "in vivo", "protocol": "Male mice were dosed with 200 mg/kg/day 2,3-butanediol from age 8 weeks to age 29 weeks. Mice were housed 4 to a cage. […], treatment was removed from one cohort, called the ‘washout 6 weeks’. Treatment continued in one cohort, called ‘treatment throughout’. Urine collected 1 week following removal of 2,3-butanediol confirmed the absence of 2,3-butanediol in the washout cohorts. At the end of the experiment blood was collected and plasma isolated and analysed. Mice were culled, and final body weights and epidydimal fat deposits recorded."}, "[3]": {"conditions": "60, 250 or 600 mg/kg in drinking water"}, "[4]": {"conditions": "250 and 600 mg/kg/day doses in drinking water"}, "[5]": {"conditions": "200 mg/kg/day from age 8 weeks to age 29 weeks, male mice"}, "[6]": {"conditions": "200 mg/kg/day from age 8 weeks, treatment removed at age 22 weeks, 6 week washout on water alone"}}, "data": [{"smiles": "CC(O)C(C)O", "note": "(stereo not drawn) [2,3-butanediol]", "values": [{"measurement": "14C-glucose incorporation into triglyceride glycerol", "setting": "[1]; at higher concentrations", "value": "inhibitor"}, {"measurement": "14C-glucose incorporation into triglyceride fatty acid", "setting": "[1]", "value": "potent inhibitor"}, {"measurement": "plasma cholesterol", "setting": "[2]; 250 mg/kg/day dose in drinking water", "value": "significantly reduced"}, {"measurement": "Epididymal white adipose tissue (EWAT) to body weight ratios", "setting": "[2]; 250 mg/kg/day dose in drinking water, mice aged 13 to 17 weeks", "value": "significantly reduced"}, {"measurement": "plasma alanine aminotransferase", "setting": "[2]; [3]", "value": "No changes"}, {"measurement": "plasma alkaline phosphatase", "setting": "[2]; [3]", "value": "No changes"}, {"measurement": "plasma aspartate aminotransferase", "setting": "[2]; [3]", "value": "No changes"}, {"measurement": "Plasma free fatty acids", "setting": "[2]; [4]", "value": "significantly reduced"}, {"measurement": "Plasma lactate dehydrogenase", "setting": "[2]; [4]", "value": "significantly reduced"}, {"measurement": "Plasma triglycerides", "setting": "[2]; [4]", "value": "significantly reduced"}, {"measurement": "fat (EWAT/body weight)", "setting": "WT mice; [5]", "value": "significant reductions"}, {"measurement": "plasma cholesterol", "setting": "WT mice; [5]", "value": "significant reductions"}, {"measurement": "treatment effect on fat (EWAT/body weight) after washout", "setting": "WT mice; [6]", "value": "persistent"}, {"measurement": "treatment effect on plasma cholesterol after washout", "setting": "WT mice; [6]", "value": "persistent"}, {"measurement": "2,3-butanediol in urine after removal of treatment", "setting": "WT mice; urine collected 1 week following removal of 2,3-butanediol, washout cohorts", "value": "absence"}]}]}
